# Experimental data taken from PubChem BioAssay (NCI).
# “And” between values parts separate entries of the source, which are not always exact repeats. Equal entries are not always repeated.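 Assay format: 96-well plates, 48-hour exposure. The concentration for 50% growth inhibition is given as GI50. The concentration for full growth arrest is given as TGI.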 The source made the active and inactive calls. No stated cut-off is given here; in the data, active means GI50 below about 0.43 µM; inactive means the rest.
# Columns and labels:
# Assay in all cases: inhibition of tumour cell growth, NCI panel, 48 h
# M19-MEL melanoma = tested on: M19-MEL melanoma
# SF-539 CNS = tested on: SF-539 CNS
# DMS 273 small cell lung = tested on: DMS 273 small cell lung
# DLD-1 colon = tested on: DLD-1 colon
# OVCAR-5 ovarian = tested on: OVCAR-5 ovarian
# SK-MEL-28 melanoma = tested on: SK-MEL-28 melanoma
# LXFL 529 NSCLC = tested on: LXFL 529 NSCLC
# SK-OV-3 ovarian = tested on: SK-OV-3 ovarian
# SK-MEL-2 melanoma = tested on: SK-MEL-2 melanoma
# 786-0 renal = tested on: 786-0 renal
# RXF 393 renal = tested on: RXF 393 renal
# CCRF-CEM leukemia = tested on: CCRF-CEM leukemia
# OVCAR-3 ovarian = tested on: OVCAR-3 ovarian
# HOP-92 NSCLC = tested on: HOP-92 NSCLC
# OVCAR-4 ovarian = tested on: OVCAR-4 ovarian
# IGROV1 ovarian = tested on: IGROV1 ovarian
# COLO 205 colon = tested on: COLO 205 colon
# HT29 colon = tested on: HT29 colon
# A549 NSCLC = tested on: A549 NSCLC
# OVCAR-8 ovarian = tested on: OVCAR-8 ovarian
# NCI-H460 lung = tested on: NCI-H460 lung
# KM12 colon = tested on: KM12 colon
# HOP-62 NSCLC = tested on: HOP-62 NSCLC
# TK-10 renal = tested on: TK-10 renal
# MALME-3M melanoma = tested on: MALME-3M melanoma
# ACHN renal = tested on: ACHN renal
# NCI-H23 lung = tested on: NCI-H23 lung
# HCC-2998 colon = tested on: HCC-2998 colon
# SNB-75 CNS = tested on: SNB-75 CNS
# UACC-62 melanoma = tested on: UACC-62 melanoma
# UO-31 renal = tested on: UO-31 renal
# RXF-631 renal = tested on: RXF-631 renal
# SF-268 CNS = tested on: SF-268 CNS
# SF-295 CNS = tested on: SF-295 CNS
# SK-MEL-5 melanoma = tested on: SK-MEL-5 melanoma
# U251 CNS = tested on: U251 CNS
# HL-60(TB) leukemia = tested on: HL-60(TB) leukemia
# NCI-H522 lung = tested on: NCI-H522 lung
# HCT-116 colon = tested on: HCT-116 colon
# KM20L2 colon = tested on: KM20L2 colon
# HCT-15 colon = tested on: HCT-15 colon
# DMS 114 small cell lung = tested on: DMS 114 small cell lung
# M14 melanoma = tested on: M14 melanoma
# A498 renal = tested on: A498 renal
# SN12C renal = tested on: SN12C renal
# NCI-H226 lung = tested on: NCI-H226 lung
# SW-620 colon = tested on: SW-620 colon
# UACC-257 melanoma = tested on: UACC-257 melanoma
# SNB-19 CNS = tested on: SNB-19 CNS
# HOP-18 NSCLC = tested on: HOP-18 NSCLC
# LOX IMVI melanoma = tested on: LOX IMVI melanoma
# EKVX NSCLC = tested on: EKVX NSCLC
# RPMI-8226 leukemia = tested on: RPMI-8226 leukemia
# K-562 leukemia = tested on: K-562 leukemia
# MOLT-4 leukemia = tested on: MOLT-4 leukemia
# XF 498 CNS = tested on: XF 498 CNS
# SNB-78 CNS = tested on: SNB-78 CNS
# SR leukemia = tested on: SR leukemia
# CAKI-1 renal = tested on: CAKI-1 renal
compound,measurement,setting,value
CCCCCCCCCCCCC(SCCNC(=O)CCNC(=O)C(O)C(C)(C)COP(=O)(O)OP(=O)(O)OCC1OC(n2cnc3c(N)ncnc32)C(O)C1OP(=O)(O)O)C(=O)NCC(N)=O (stereo not drawn),TGI,M19-MEL melanoma,> 100 µM
same,TGI,SF-539 CNS,> 100 µM
same,TGI,DMS 273 small cell lung,> 100 µM
same,TGI,DLD-1 colon,> 100 µM
same,TGI,OVCAR-5 ovarian,> 100 µM
same,TGI,SK-MEL-28 melanoma,> 100 µM
same,TGI,LXFL 529 NSCLC,> 100 µM
same,TGI,SK-OV-3 ovarian,98.2 µM
same,TGI,SK-MEL-2 melanoma,> 100 µM
same,TGI,786-0 renal,> 100 µM
same,TGI,RXF 393 renal,> 100 µM
same,TGI,CCRF-CEM leukemia,> 100 µM
same,TGI,OVCAR-3 ovarian,> 100 µM
same,TGI,HOP-92 NSCLC,> 100 µM
same,TGI,OVCAR-4 ovarian,> 100 µM
same,TGI,IGROV1 ovarian,> 100 µM
same,TGI,COLO 205 colon,> 100 µM
same,TGI,HT29 colon,> 100 µM
same,TGI,A549 NSCLC,> 100 µM
same,TGI,OVCAR-8 ovarian,> 100 µM
same,TGI,NCI-H460 lung,> 100 µM
same,TGI,KM12 colon,> 100 µM
same,TGI,HOP-62 NSCLC,> 100 µM
same,TGI,TK-10 renal,> 100 µM
same,TGI,MALME-3M melanoma,> 100 µM
same,TGI,ACHN renal,> 100 µM
same,TGI,NCI-H23 lung,> 100 µM
same,TGI,HCC-2998 colon,> 100 µM
same,TGI,SNB-75 CNS,9.04 µM
same,TGI,UACC-62 melanoma,> 100 µM
same,TGI,UO-31 renal,> 100 µM
same,TGI,RXF-631 renal,> 100 µM
same,TGI,SF-268 CNS,> 100 µM
same,TGI,SF-295 CNS,> 100 µM
same,TGI,SK-MEL-5 melanoma,> 100 µM
same,TGI,U251 CNS,> 100 µM
same,TGI,HL-60(TB) leukemia,> 100 µM
same,TGI,NCI-H522 lung,> 100 µM
same,TGI,HCT-116 colon,> 100 µM
same,TGI,KM20L2 colon,> 100 µM
same,TGI,HCT-15 colon,> 100 µM
same,TGI,DMS 114 small cell lung,> 100 µM
same,TGI,M14 melanoma,> 100 µM
same,TGI,A498 renal,> 100 µM
same,TGI,SN12C renal,> 100 µM
same,TGI,NCI-H226 lung,> 100 µM
same,TGI,SW-620 colon,> 100 µM
same,TGI,UACC-257 melanoma,> 100 µM
same,TGI,SNB-19 CNS,> 100 µM
same,TGI,HOP-18 NSCLC,> 100 µM
same,TGI,LOX IMVI melanoma,> 100 µM
same,TGI,EKVX NSCLC,> 100 µM
Nc1nc(N)c2ncn(CC(CO)CC(c3ccccc3)P(=O)(O)O)c2n1 (stereo not drawn),TGI,M19-MEL melanoma,> 100 µM
same,TGI,RPMI-8226 leukemia,> 100 µM
same,TGI,SF-539 CNS,> 100 µM
same,TGI,DMS 273 small cell lung,> 100 µM
same,TGI,DLD-1 colon,> 100 µM
same,TGI,OVCAR-5 ovarian,> 100 µM
same,TGI,SK-MEL-28 melanoma,> 100 µM
same,GI50,LXFL 529 NSCLC,> 100 µM and 13.8 µM
same,TGI,LXFL 529 NSCLC,> 100 µM and 99.3 µM
same,TGI,SK-OV-3 ovarian,> 100 µM
same,TGI,SK-MEL-2 melanoma,> 100 µM
same,TGI,K-562 leukemia,> 100 µM
same,TGI,RXF 393 renal,> 100 µM
same,TGI,CCRF-CEM leukemia,> 100 µM
same,TGI,OVCAR-3 ovarian,> 100 µM
same,TGI,HOP-92 NSCLC,> 100 µM
same,TGI,MOLT-4 leukemia,> 100 µM
same,TGI,XF 498 CNS,> 100 µM
same,TGI,IGROV1 ovarian,> 100 µM
same,TGI,COLO 205 colon,> 100 µM
same,TGI,HT29 colon,> 100 µM
same,TGI,A549 NSCLC,> 100 µM
same,TGI,OVCAR-8 ovarian,> 100 µM
same,TGI,NCI-H460 lung,> 100 µM
same,TGI,KM12 colon,> 100 µM
same,TGI,HOP-62 NSCLC,> 100 µM
same,TGI,TK-10 renal,> 100 µM
same,TGI,SNB-78 CNS,> 100 µM
same,TGI,MALME-3M melanoma,> 100 µM
same,TGI,ACHN renal,> 100 µM
same,TGI,NCI-H23 lung,> 100 µM
same,TGI,HCC-2998 colon,> 100 µM
same,GI50,SR leukemia,> 100 µM and 35 µM
same,TGI,SR leukemia,> 100 µM
same,TGI,SNB-75 CNS,> 100 µM
same,TGI,UACC-62 melanoma,> 100 µM
same,TGI,UO-31 renal,> 100 µM
same,TGI,SF-268 CNS,> 100 µM
same,TGI,SF-295 CNS,> 100 µM
same,TGI,SK-MEL-5 melanoma,> 100 µM
same,TGI,U251 CNS,> 100 µM
same,TGI,HL-60(TB) leukemia,> 100 µM
same,TGI,NCI-H522 lung,> 100 µM
same,TGI,HCT-116 colon,> 100 µM
same,TGI,CAKI-1 renal,> 100 µM
same,TGI,KM20L2 colon,> 100 µM
same,TGI,HCT-15 colon,> 100 µM
same,TGI,DMS 114 small cell lung,> 100 µM
same,TGI,M14 melanoma,10.4 µM
same,TGI,A498 renal,> 100 µM
same,TGI,SN12C renal,> 100 µM
same,TGI,NCI-H226 lung,> 100 µM
same,TGI,SW-620 colon,> 100 µM
same,TGI,UACC-257 melanoma,> 100 µM
same,TGI,SNB-19 CNS,> 100 µM
same,TGI,HOP-18 NSCLC,> 100 µM
same,TGI,LOX IMVI melanoma,> 100 µM
same,TGI,EKVX NSCLC,> 100 µM
CCOC(=O)c1sc2c(C(=O)OCC)n3ccccc3c2c1N,outcome,RPMI-8226 leukemia,inactive
same,GI50,SF-539 CNS,22.3 µM
same,TGI,SF-539 CNS,75.4 µM
same,TGI,RXF 393 renal,50 µM
same,GI50,HOP-92 NSCLC,23.8 µM
same,TGI,HOP-92 NSCLC,55.2 µM
same,outcome,MOLT-4 leukemia,inactive
same,GI50,XF 498 CNS,33.9 µM
same,TGI,XF 498 CNS,48 µM
same,GI50,OVCAR-8 ovarian,52.1 µM
same,GI50,HOP-62 NSCLC,22.5 µM
same,TGI,HOP-62 NSCLC,57.3 µM and 70.7 µM
same,GI50,SNB-78 CNS,27.3 µM
same,GI50,ACHN renal,89.4 µM
same,GI50,NCI-H23 lung,74.2 µM
same,outcome,SR leukemia,inactive
same,TGI,SNB-75 CNS,99.1 µM
same,GI50,UO-31 renal,49.2 µM
same,TGI,UO-31 renal,67.1 µM
same,GI50,SF-268 CNS,36.6 µM
same,GI50,NCI-H522 lung,24.3 µM
same,TGI,NCI-H522 lung,63 µM and 68 µM
same,GI50,HCT-116 colon,35.9 µM
same,GI50,DMS 114 small cell lung,47.5 µM
same,GI50,SN12C renal,73.5 µM
same,GI50,SNB-19 CNS,23.9 µM
same,TGI,SNB-19 CNS,90.9 µM and 65.5 µM
same,GI50,EKVX NSCLC,70 µM
COC(=O)c1ccc(OCc2ccc3oc(=O)c(-c4ccccc4)nc3c2)cc1,TGI,M19-MEL melanoma,> 100 µM
same,TGI,RPMI-8226 leukemia,> 100 µM
same,TGI,SF-539 CNS,> 100 µM
same,TGI,DMS 273 small cell lung,> 100 µM
same,TGI,DLD-1 colon,38.4 µM
same,TGI,OVCAR-5 ovarian,> 100 µM
same,TGI,SK-MEL-28 melanoma,> 100 µM
same,TGI,SK-MEL-2 melanoma,> 100 µM
same,TGI,K-562 leukemia,> 100 µM
same,TGI,786-0 renal,66.5 µM
same,TGI,CCRF-CEM leukemia,72.7 µM
same,TGI,OVCAR-3 ovarian,> 100 µM
same,TGI,MOLT-4 leukemia,> 100 µM
same,TGI,XF 498 CNS,> 100 µM
same,TGI,OVCAR-4 ovarian,> 100 µM
same,TGI,COLO 205 colon,> 100 µM
same,TGI,HT29 colon,> 100 µM
same,TGI,A549 NSCLC,> 100 µM
same,TGI,OVCAR-8 ovarian,> 100 µM
same,TGI,NCI-H460 lung,> 100 µM
same,TGI,KM12 colon,> 100 µM
same,TGI,HOP-62 NSCLC,> 100 µM
same,TGI,TK-10 renal,> 100 µM
same,TGI,SNB-78 CNS,> 100 µM
same,TGI,MALME-3M melanoma,> 100 µM
same,TGI,ACHN renal,> 100 µM
same,TGI,NCI-H23 lung,> 100 µM
same,TGI,HCC-2998 colon,> 100 µM
same,TGI,SR leukemia,> 100 µM
same,TGI,SNB-75 CNS,> 100 µM
same,TGI,UO-31 renal,> 100 µM
same,TGI,SF-268 CNS,> 100 µM
same,TGI,SF-295 CNS,> 100 µM
same,TGI,SK-MEL-5 melanoma,> 100 µM
same,TGI,U251 CNS,> 100 µM
same,TGI,HL-60(TB) leukemia,> 100 µM
same,TGI,NCI-H522 lung,> 100 µM
same,TGI,HCT-116 colon,> 100 µM
same,TGI,CAKI-1 renal,> 100 µM
same,TGI,HCT-15 colon,> 100 µM
same,TGI,DMS 114 small cell lung,> 100 µM
same,TGI,M14 melanoma,> 100 µM
same,TGI,SN12C renal,> 100 µM
same,TGI,NCI-H226 lung,> 100 µM
same,TGI,SW-620 colon,> 100 µM
same,TGI,UACC-257 melanoma,> 100 µM
same,TGI,SNB-19 CNS,> 100 µM
same,TGI,HOP-18 NSCLC,> 100 µM
same,TGI,LOX IMVI melanoma,> 100 µM
same,TGI,EKVX NSCLC,> 100 µM
